Measurements as given in patent US11420973B2, “Amide substituted indole compounds useful as TLR inhibitors” (BRISTOL-MYERS SQUIBB COMPANY, priority 2017, dated 2022).

How the values were obtained:
human TLR7 = human TLR7 (Homo sapiens (Human), UniProt Q9NYK1); assay: TLR7 inhibition reporter assay (HEK-Blue SEAP reporter, gardiquimod stimulation); type: cell-based; settings: HEK-Blue cells overexpressing human TLR7, gardiquimod 7.5 μM
Procedure: HEK-Blue™-cells (Invivogen) overexpressing human TLR7, TLR8 or TLR9 receptors were used for screening inhibitors of these receptors using an inducible SEAP (secreted embryonic alkaline phosphatase) reporter gene under the control of the IFN-β minimal promoter fused to five NF-κB and AP-1-binding sites. Briefly, cells are seeded into Greiner 384 well plates (15000 cells per well for TLR7, 20,000 for TLR8 and 25,000 for TLR9) and then treated with test compounds in DMSO to yield a final dose response concentration range of 0.05 nM-50 μM. After a 30 minute compound pre-treatment at room temperature, the cells are then stimulated with a TLR7 ligand (gardiquimod at a final concentration of 7.5 μM), TLR8 ligand (R848 at a final concentration of 15.9 μM) or TLR9 ligand (ODN2006 at a final concentration of 5 nM) to activate NF-κB and AP-1 which induce the production of SEAP. After a 22 hour incubation at 37° C., 5% CO2, SEAP levels are determined with the addition of HEK-Blue™ Detection reagent (Invivogen), a cell culture medium that allows for detection of SEAP, according to manufacturer's specifications.

human TLR8 = human TLR8 (Homo sapiens (Human), UniProt Q9NR97); assay: TLR8 inhibition reporter assay (HEK-Blue SEAP reporter, R848 stimulation); settings: read-out: TLR8 IC50; HEK-Blue cells overexpressing human TLR8, R848 15.9 μM, SEAP reporter;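 further: SEAP driven by IFN-β minimal promoter with NF-κB and AP-1 sites, 22 h incubation, compounds 0.05 nM–50 µM, inhibition scaled between agonist plus DMSO and reference inhibitor wells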
Sequence of human TLR8 (Q9NR97 27-1041): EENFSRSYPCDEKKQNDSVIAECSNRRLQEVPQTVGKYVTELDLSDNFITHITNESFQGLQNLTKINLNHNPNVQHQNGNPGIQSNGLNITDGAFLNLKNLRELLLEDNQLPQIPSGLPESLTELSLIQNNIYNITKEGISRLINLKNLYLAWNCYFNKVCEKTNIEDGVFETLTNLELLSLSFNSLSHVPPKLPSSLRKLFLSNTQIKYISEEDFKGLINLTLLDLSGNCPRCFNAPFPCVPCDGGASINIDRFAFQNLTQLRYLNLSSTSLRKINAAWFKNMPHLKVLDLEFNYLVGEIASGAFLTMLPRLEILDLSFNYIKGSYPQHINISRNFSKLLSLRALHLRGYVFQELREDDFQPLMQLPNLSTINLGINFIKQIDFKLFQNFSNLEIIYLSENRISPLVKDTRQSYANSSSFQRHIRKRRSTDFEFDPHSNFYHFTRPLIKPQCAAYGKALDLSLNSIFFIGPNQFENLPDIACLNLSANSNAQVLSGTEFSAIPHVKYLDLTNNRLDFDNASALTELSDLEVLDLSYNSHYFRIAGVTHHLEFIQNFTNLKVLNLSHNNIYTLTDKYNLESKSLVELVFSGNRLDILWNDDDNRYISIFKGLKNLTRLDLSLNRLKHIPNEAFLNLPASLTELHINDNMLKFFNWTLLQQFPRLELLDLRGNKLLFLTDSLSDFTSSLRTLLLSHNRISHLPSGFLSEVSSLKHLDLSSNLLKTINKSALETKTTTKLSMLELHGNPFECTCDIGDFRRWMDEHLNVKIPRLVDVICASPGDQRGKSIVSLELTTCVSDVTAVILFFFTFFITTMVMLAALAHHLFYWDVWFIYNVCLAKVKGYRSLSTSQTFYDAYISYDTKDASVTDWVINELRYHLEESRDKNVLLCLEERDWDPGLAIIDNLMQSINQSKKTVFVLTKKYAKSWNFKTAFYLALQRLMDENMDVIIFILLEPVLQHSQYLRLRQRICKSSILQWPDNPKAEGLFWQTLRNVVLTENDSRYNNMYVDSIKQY

human TLR9 = human TLR9 (Homo sapiens (Human), UniProt Q9NR96); assay: TLR9 inhibition reporter assay (HEK-Blue SEAP reporter, ODN2006 stimulation); settings: read-out: TLR9 IC50; HEK-Blue cells overexpressing human TLR9, ODN2006 5 nM, SEAP reporter;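 further: SEAP reporter under IFN-β minimal promoter with five NF-κB and AP-1 sites, 22 h incubation, compounds 0.05 nM–50 µM, inhibition relative to agonist plus DMSO versus known inhibitor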
Sequence of human TLR9 (Q9NR96 26-1032): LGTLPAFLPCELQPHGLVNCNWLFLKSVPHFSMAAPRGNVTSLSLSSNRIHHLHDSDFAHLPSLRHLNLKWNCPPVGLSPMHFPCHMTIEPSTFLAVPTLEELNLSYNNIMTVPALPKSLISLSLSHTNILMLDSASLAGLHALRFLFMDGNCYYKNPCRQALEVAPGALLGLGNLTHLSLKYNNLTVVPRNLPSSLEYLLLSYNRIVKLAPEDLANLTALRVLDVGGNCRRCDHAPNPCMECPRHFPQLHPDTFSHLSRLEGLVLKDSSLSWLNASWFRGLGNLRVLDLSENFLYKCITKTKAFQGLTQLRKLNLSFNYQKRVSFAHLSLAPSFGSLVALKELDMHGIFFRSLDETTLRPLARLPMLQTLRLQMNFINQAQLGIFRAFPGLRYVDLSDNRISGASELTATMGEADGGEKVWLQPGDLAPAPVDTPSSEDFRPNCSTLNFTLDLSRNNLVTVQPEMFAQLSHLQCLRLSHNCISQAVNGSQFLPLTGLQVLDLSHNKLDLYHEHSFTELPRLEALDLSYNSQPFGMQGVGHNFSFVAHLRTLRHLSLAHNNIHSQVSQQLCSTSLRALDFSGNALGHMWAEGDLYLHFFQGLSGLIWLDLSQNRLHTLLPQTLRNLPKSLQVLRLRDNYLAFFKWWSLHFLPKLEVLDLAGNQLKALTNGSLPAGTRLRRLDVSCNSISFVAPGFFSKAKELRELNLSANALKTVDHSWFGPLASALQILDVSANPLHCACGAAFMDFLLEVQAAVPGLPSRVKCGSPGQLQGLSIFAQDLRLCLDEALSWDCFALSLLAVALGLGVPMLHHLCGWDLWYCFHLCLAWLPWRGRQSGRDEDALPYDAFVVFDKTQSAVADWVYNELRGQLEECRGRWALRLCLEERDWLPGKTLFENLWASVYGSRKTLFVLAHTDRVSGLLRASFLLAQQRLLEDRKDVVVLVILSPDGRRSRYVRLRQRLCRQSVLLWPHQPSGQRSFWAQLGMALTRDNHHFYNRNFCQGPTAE

Sequence of human TLR7 (Q9NYK1 27-1049): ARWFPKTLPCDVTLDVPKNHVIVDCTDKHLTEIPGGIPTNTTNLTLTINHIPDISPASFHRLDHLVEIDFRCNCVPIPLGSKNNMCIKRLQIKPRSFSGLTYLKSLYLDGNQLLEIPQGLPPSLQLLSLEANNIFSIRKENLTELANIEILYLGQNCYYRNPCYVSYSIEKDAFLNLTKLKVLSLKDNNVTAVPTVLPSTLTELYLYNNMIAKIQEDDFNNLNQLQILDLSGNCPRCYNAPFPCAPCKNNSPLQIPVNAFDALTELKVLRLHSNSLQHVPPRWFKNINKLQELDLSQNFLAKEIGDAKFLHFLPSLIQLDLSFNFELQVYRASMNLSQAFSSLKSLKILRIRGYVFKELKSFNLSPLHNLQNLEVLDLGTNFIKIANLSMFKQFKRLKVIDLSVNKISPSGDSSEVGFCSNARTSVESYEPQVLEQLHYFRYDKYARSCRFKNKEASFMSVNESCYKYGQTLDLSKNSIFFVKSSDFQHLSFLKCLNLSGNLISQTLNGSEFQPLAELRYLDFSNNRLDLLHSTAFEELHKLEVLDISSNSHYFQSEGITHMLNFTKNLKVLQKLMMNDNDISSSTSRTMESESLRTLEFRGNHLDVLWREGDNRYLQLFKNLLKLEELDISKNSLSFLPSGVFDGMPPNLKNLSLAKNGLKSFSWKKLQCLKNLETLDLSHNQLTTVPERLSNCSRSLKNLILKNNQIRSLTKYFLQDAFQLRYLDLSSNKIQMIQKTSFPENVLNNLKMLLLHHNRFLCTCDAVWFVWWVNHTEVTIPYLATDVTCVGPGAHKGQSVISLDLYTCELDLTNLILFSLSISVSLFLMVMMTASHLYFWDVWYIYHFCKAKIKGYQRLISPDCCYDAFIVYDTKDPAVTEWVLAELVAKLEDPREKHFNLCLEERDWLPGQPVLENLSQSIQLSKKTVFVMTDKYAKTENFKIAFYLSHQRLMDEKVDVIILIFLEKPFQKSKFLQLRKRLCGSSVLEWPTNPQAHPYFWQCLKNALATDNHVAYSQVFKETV

| Compound | IC50 (human TLR7) [nM] | IC50 (human TLR8) [nM] | IC50 (human TLR9) [nM] |
| --- | --- | --- | --- |
| Cc1cc(-c2[nH]c3ccc(C(=O)N4CCC(N(C)C)CC4)cc3c2C(C)C)cc(C)n1 [Example 104, (4-(dimethylamino)piperidin-1-yl)(2-(2,6-dimethylpyridin-4-yl)-3-isopropyl-1H-indol-5-yl)methanone] | 14 | 12 | 373 |
| Cc1cc(-c2[nH]c3ccc(C(C)(C)C(=O)N4CCC5(CCNC5)CC4)cc3c2C(C)C)ccn1 [Example 181, 2-(3-isopropyl-2-(2-methylpyridin-4-yl)-1H-indol-5-yl)-2-methyl-1-(2,8-diazaspiro[4.5]decan-8-yl)propan-1-one] | 76 | 1240 | 1950 |
| Cc1cc(-c2[nH]c3ccc(C(C)C(=O)N(C)C4CCNCC4)cc3c2C(C)C)ccn1 (stereo not drawn) [Example 207, 2-(3-isopropyl-2-(2-methylpyridin-4-yl)-1H-indol-5-yl)-N-methyl-N-(piperidin-4-yl)propanamide] | 172 | 156 | 396 |
| Cc1cc(-c2[nH]c3ccc(C(C)(C)C(=O)NC4C[C@H]5CC[C@@H](C4)N5C)cc3c2C(C)C)ccn1 (stereo partly drawn) [Example 166, 2-(3-isopropyl-2-(2-methylpyridin-4-yl)-1H-indol-5-yl)-2-methyl-N-((1R,5S)-8-methyl-8-azabicyclo[3.2.1]octan-3-yl)propanamide] | 22 | 135 | 8230 |
| CNCC(=O)N1CC2CN(C(=O)c3ccc4[nH]c(-c5ccnc(C)c5)c(C(C)C)c4c3)CC2C1 (stereo not drawn) [Example 119, 1-(5-(3-isopropyl-2-(2-methylpyridin-4-yl)-1H-indole-5-carbonyl)hexahydropyrrolo[3,4-c]pyrrol-2(1H)-yl)-2-(methylamino)ethanone] | 2610 | 226 | 2230 |
| Cc1cc(-c2[nH]c3ccc(C(C)(C)C(=O)N4CCC5(CCNC5)C4)cc3c2C(C)C)ccn1 (stereo not drawn) [Example 178, 2-(3-isopropyl-2-(2-methylpyridin-4-yl)-1H-indol-5-yl)-2-methyl-1-(2,7-diazaspiro[4.4]nonan-2-yl)propan-1-one] | 61 | 859 | 1660 |
| Cc1cc(-c2[nH]c3ccc(C(C)(C)C(=O)N4CCCC(CN)C4)cc3c2C(C)C)ccn1 (stereo not drawn) [Example 156, 1-(3-(aminomethyl)piperidin-1-yl)-2-(3-isopropyl-2-(2-methylpyridin-4-yl)-1H-indol-5-yl)-2-methylpropan-1-one] | 53 | 52 | 927 |
| Cc1cc(-c2[nH]c3ccc(C(C)(C)C(=O)NC[C@@H](F)C(C)(C)O)cc3c2C(C)C)ccn1 [Example 133, (R)—N-(2-fluoro-3-hydroxy-3-methylbutyl)-2-(3-isopropyl-2-(2-methylpyridin-4-yl)-1H-indol-5-yl)-2-methylpropanamide] | 284 | 399 | > 50000 |
| Cc1cc(-c2[nH]c3ccc(C(C)(C)C(=O)NC4CCCC(N)C4)cc3c2C(C)C)ccn1 (stereo not drawn) [Example 168, N-(3-aminocyclohexyl)-2-(3-isopropyl-2-(2-methylpyridin-4-yl)-1H-indol-5-yl)-2-methylpropanamide] | 96 | 44 | 2670 |
| Cc1cc(-c2[nH]c3ccc(C(C)(C)C(=O)N[C@@H]4CCCNC4)cc3c2C(C)C)ccn1 [Example 140, (R)-2-(3-isopropyl-2-(2-methylpyridin-4-yl)-1H-indol-5-yl)-2-methyl-N-(piperidin-3-yl)propanamide] | 40 | 32 | 1220 |
| Cc1cc(-c2[nH]c3ccc(C(C)C(=O)N[C@@H]4CCCNC4)cc3c2C(C)C)ccn1 (stereo partly drawn) [Example 195, 2-(3-isopropyl-2-(2-methylpyridin-4-yl)-1H-indol-5-yl)-N—((R)-piperidin-3-yl)propanamide] | 273 | 75 | 912 |
| Cc1cc(-c2[nH]c3ccc(C(=O)N4CCNCC4)cc3c2C(C)C)cc(C)n1 [Example 108, (2-(2,6-dimethylpyridin-4-yl)-3-isopropyl-1H-indol-5-yl)(piperazin-1-yl)methanone] | 7.3 | 1.5 | 247 |
| Cc1cc(-c2[nH]c3ccc(C(C)C(=O)N4CCC(CN)CC4)cc3c2C(C)C)ccn1 (stereo not drawn) [Example 202, 1-(4-(aminomethyl)piperidin-1-yl)-2-(3-isopropyl-2-(2-methylpyridin-4-yl)-1H-indol-5-yl)propan-1-one] | 174 | 534 | 1350 |
| Cc1cc(-c2[nH]c3ccc(C(C)(C)C(=O)NC4CCNCC4)cc3c2C(C)C)ccn1 [Example 143, 2-(3-isopropyl-2-(2-methylpyridin-4-yl)-1H-indol-5-yl)-2-methyl-N-(piperidin-4-yl)propanamide] | 35 | 147 | 562 |
| Cc1cc(-c2[nH]c3ccc(C(C)(C)C(=O)NCC4(O)CCN(C)CC4)cc3c2C(C)C)ccn1 [Example 173, N-((4-hydroxy-1-methylpiperidin-4-yl)methyl)-2-(3-isopropyl-2-(2-methylpyridin-4-yl)-1H-indol-5-yl)-2-methylpropanamide] | 57 | 150 | 691 |
| Cc1c(-c2[nH]c3ccc(C(=O)N(C)CCN(C)C)cc3c2C(C)C)cn(C)c(=O)c1Cl [Example 222, 2-(5-chloro-1,4-dimethyl-6-oxo-1,6-dihydropyridin-3-yl)-N-(2-(dimethylamino)ethyl)-3-isopropyl-N-methyl-1H-indole-5-carboxamide] | 22 | 10 | 6920 |
| CC(C)c1c(-c2ccnc3[nH]ncc23)[nH]c2ccc(CCC(=O)N3CCOCC3)cc12 [Example 136, 3-(3-isopropyl-2-(1H-pyrazolo[3,4-b]pyridin-4-yl)-1H-indol-5-yl)-1-morpholinopropan-1-one] | 1760 | 411 | > 50000 |

Continued, values first:

| IC50 (human TLR7) [nM] | IC50 (human TLR8) [nM] | IC50 (human TLR9) [nM] | Compound |
| --- | --- | --- | --- |
| 493 | 381 | > 50000 | CCc1c(-c2ccc(OC)c(OC)c2)[nH]c2ccc(C(=O)N3CCNC(=O)C3)cc12 [Example 62, 4-(2-(3,4-dimethoxyphenyl)-3-ethyl-1H-indole-5-carbonyl)piperazin-2-one] |
| 45 | 4 | 3010 | COc1ccc(-c2[nH]c3ccc(C(=O)N4CCCN(C)CC4)cc3c2C(C)C)cc1OC [Example 2, (2-(3,4-dimethoxyphenyl)-3-isopropyl-1H-indol-5-yl)(4-methyl-1,4-diazepan-1-yl)methanone] |
| 866 | 344 | 4050 | COc1ccc(-c2[nH]c3ccc(C(=O)N4CC5CN(CC(=O)N(C)C)CC5C4)cc3c2CC(F)(F)F)cc1OC (stereo not drawn) [Example 90, 2-(5-(2-(3,4-dimethoxyphenyl)-3-(2,2,2-trifluoroethyl)-1H-indole-5-carbonyl)hexahydropyrrolo[3,4-c]pyrrol-2(1H)-yl)-N,N-dimethylacetamide] |
| 296 | 124 | 1050 | CCc1c(-c2ccc(OC)c(OC)c2)[nH]c2ccc(C(=O)N3CC4CNCC4C3)cc12 (stereo not drawn) [Example 79, (2-(3,4-dimethoxyphenyl)-3-ethyl-1H-indol-5-yl)(hexahydropyrrolo[3,4-c]pyrrol-2(1H)-yl)methanone] |
| 632 | 191 | 4160 | CCc1c(-c2ccc(OC)c(OC)c2)[nH]c2ccc(C(=O)N3CC[C@H](N(C)C)C3)cc12 [Example 30, (S)-(2-(3,4-dimethoxyphenyl)-3-ethyl-1H-indol-5-yl)(3-(dimethylamino)pyrrolidin-1-yl)methanone] |
| 109 | 32 | 840 | COc1ccc(-c2[nH]c3ccc(CCC(=O)N4CC5CNCC5C4)cc3c2C(C)C)cc1OC (stereo not drawn) [Example 137, 3-(2-(3,4-dimethoxyphenyl)-3-isopropyl-1H-indol-5-yl)-1-(hexahydropyrrolo[3,4-c]pyrrol-2(1H)-yl)propan-1-one] |
| 343 | 267 | 4020 | CNC(=O)CN1CC2CN(C(=O)c3ccc4[nH]c(-c5ccc(OC)c(OC)c5)c(C(C)C)c4c3)CC2C1 (stereo not drawn) [Example 7, 2-(5-(2-(3,4-dimethoxyphenyl)-3-isopropyl-1H-indole-5-carbonyl)hexahydropyrrolo[3,4-c]pyrrol-2(1H)-yl)-N-methylacetamide] |
| 25 | 4 | 4340 | CCc1c(-c2ccc(OC)c(OC)c2)[nH]c2ccc(C(=O)N(CC)CCN(C)C)cc12 [Example 73, 2-(3,4-dimethoxyphenyl)-N-(2-(dimethylamino)ethyl)-N,3-diethyl-1H-indole-5-carboxamide] |
| 968 | 274 | > 50000 | CCc1c(-c2ccc(OC)c(OC)c2)[nH]c2ccc(C(=O)NCCO)cc12 [Example 69, 2-(3,4-dimethoxyphenyl)-3-ethyl-N-(2-hydroxyethyl)-1H-indole-5-carboxamide] |
| 1.8 | 2.3 | 3350 | COc1cc(-c2[nH]c3ccc(C(=O)N(C)CCN(C)C)cc3c2C(C)C)cn2ncnc12 [Example 129, N-(2-(dimethylamino)ethyl)-3-isopropyl-2-(8-methoxy-[1,2,4]triazolo[1,5-a]pyridin-6-yl)-N-methyl-1H-indole-5-carboxamide] |
| 391 | 60 | 931 | CCc1c(-c2ccc(OC)c(OC)c2)[nH]c2ccc(C(=O)NCc3ccc(N4CCNCC4)cc3)cc12 [Example 46, 2-(3,4-dimethoxyphenyl)-3-ethyl-N-(4-(piperazin-1-yl)benzyl)-1H-indole-5-carboxamide] |
